Assay results: patent US10752603B2, “Purification of oxydiphthalic anhydrides” (SABIC Global Technologies, B.V., priority 2018, dated 2020)
Entries after “also recorded” stand apart in the source; their conditions may differ.

Test: Color stability of ODPA after heat treatment (220 to 225° C., about 8 hours)
Assay type: physicochemical
Conditions: 220 to 225° C. for about 8 hours, visual observation
Protocol: The color stability of the ODPA after subjecting the ODPA to heat treatment was also examined. The heat stability testing was performed on various ODPA samples as described in Table 7. The samples were tested using a 10 wt % solution of each sample in DMF and APHA values were recorded using a Macbeth colorimeter Each sample was heat-treated by exposing the sample to a temperature of 220 to 225° C. for about 8 hours. The samples were monitored for color changes during the heat exposure duration. Visual observations are recorded in Table 7, as well as the measured APHA color values.

Structure (SMILES): O=C1OC(=O)c2cc(Oc3ccc4c(c3)C(=O)OC4=O)ccc21 [Example 74, reference compound]
- Qualitative color observations after exposure to heat: no detectable color change; also recorded: No change observed
